Common to all, as to test: DTP human tumour cell line panel, 48 h
Assay [1] relates to 786-0.
Assay [2] concerns CCRF-CEM.
In assay [3] the test system is COLO 205.
Assay [4] deals with EKVX.
In assay [5] the test system is HOP-62.
Assay [6] has as its system HOP-92.
In assay [7] the test system is HT-29.
In assay [8] the test system is LOX IMVI.
Assay [9] deals with M14.
In assay [10] the test system is MOLT-4.
Assay [11] concerns NCI-H522.
Assay [12] relates to OVCAR-4.
Assay [13] has as its system SF-268.
Assay [14] deals with SF-295.
Assay [15] has as its system SK-MEL-28.
Assay [16] concerns SNB-78.
In assay [17] the test system is SR.
The subject of assay [18] is TK-10.
Assay [19] relates to UACC-62.
Assay [20] concerns UO-31.

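Each compound was tested at five concentrations against cells in 96-well plates for 48 hours. GI50 = concentration required for 50% inhibition of growth.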 Calls of active or inactive are those of the source. No stated cut-off is given here; in the data, active = GI50 up to about 1.1 µM and inactive = higher.

Take `O=C1c2ccccc2C(=O)c2c(/C=C\N3CCCCC3)ccnc21`: the GI50 in assay [1] was 6.35 µM (inactive); in [2] it was 3.78 µM (inactive); in [3] it was 3.51 µM (inactive); in assay [4], 15.2 µM (inactive); in [5], 3.81 µM (inactive); in assay [6] it was 9.18 µM (inactive). In addition, the GI50 was 5.57 µM (inactive) in assay [7]; 0.337 µM (active) in assay [8]; 0.578 µM (active) in assay [9]; 6.84 µM (inactive) in assay [10]; 2.55 µM (inactive) in assay [11]; 9.57 µM (inactive) in [12]. The GI50 in [13] was 12 µM (inactive); in [14], 2.47 µM (inactive); in [15] it was 1.11 µM (active); in assay [16] it was 18.7 µM (inactive); in [17], 8.36 µM (inactive); in assay [18], 15.2 µM (inactive). Besides, the results for the GI50 in assay [19] and in assay [20] were 0.659 µM (active) and 2.01 µM (inactive), respectively.
With `Cc1ccc(C(=O)O)cc1NC(=O)c1cc(/C=C/c2ccccc2)[nH]c(=S)n1`, the GI50 in assay [1] was > 64.3 µM (inactive); in assay [2], > 64.7 µM (inactive); in assay [3] it was > 65.8 µM (inactive); in [4], > 100 µM (inactive); in [5] it was > 100 µM (inactive); in assay [6], > 100 µM (inactive). Besides, the GI50 is > 64.4 µM (inactive) in assay [7]; > 100 µM (inactive) in [8]; > 100 µM (inactive) in assay [9]; > 100 µM (inactive) in [10]; > 100 µM (inactive) in [11]; > 100 µM (inactive) in [12]. The GI50 in [13], in [14], in assay [15], in [16], in [17] and in assay [18] was > 100 µM (inactive) throughout. For the same compound, the GI50 in [19] and in assay [20] was > 100 µM (inactive) each time.
Consider `O.O=C([O-])c1ccccc1Nc1ccccc1C(=O)[O-].[Zn+2]`, for which the GI50 is 24.1 µM (inactive) in [1]; 24.1 µM (inactive) in assay [2]; > 49.7 µM (inactive) in [3]; 24.7 µM (inactive) in assay [4]; > 43.1 µM (inactive) in assay [5]; 18.7 µM (inactive) in [6]. In addition, the GI50 was > 70.6 µM (inactive) in assay [7]; 22 µM (inactive) in assay [8]; 35.1 µM (inactive) in assay [9]; 30.5 µM (inactive) in [10]; 13.2 µM (inactive) in assay [11]; 19.8 µM (inactive) in assay [12]. The GI50 in assay [13] was 21 µM (inactive); in assay [14], 17.4 µM (inactive); in [15] it was 19.9 µM (inactive); in [16], 37.2 µM (inactive); in assay [17] it was 19 µM (inactive); in assay [18], 95.1 µM (inactive). Further, the GI50 in assay [19] was 19.7 µM (inactive); in [20], > 44.7 µM (inactive).
For the compound `CS(=O)(=O)ON1C(=O)c2ccc(N)cc2C1=O`, the GI50 was > 100 µM (inactive) in [1]; 16 µM (inactive) in assay [2]; 49.5 µM (inactive) in [3]; > 100 µM (inactive) in assay [4]; > 55.5 µM (inactive) in assay [5]; > 100 µM (inactive) in assay [6]. In addition, the GI50 in [7] is > 79.3 µM (inactive); in [8] it was > 72.6 µM (inactive); in [9], > 87.3 µM (inactive); in assay [10], 21.4 µM (inactive); in assay [11] it was 19.4 µM (inactive); in assay [12] it was > 100 µM (inactive). Moreover, the GI50 in assay [13] is > 50.6 µM (inactive); in assay [14], > 100 µM (inactive); in assay [15] it was > 49.4 µM (inactive); in assay [16], > 100 µM (inactive); in assay [17], 30 µM (inactive); in assay [18], > 100 µM (inactive). The GI50 in assay [19] is > 64 µM (inactive); in [20] it was > 100 µM (inactive).
For `NC(=O)c1nnn(Cc2cc(Cl)c(C(=O)c3ccc(Cl)cc3)c(Cl)c2)c1N` [CARBOXYAMIDOTRIAZOLE], the GI50 was 27.9 µM (inactive) in assay [1]; 31 µM (inactive) in assay [2]; 27.8 µM (inactive) in [3]; 16.8 µM (inactive) in [4]; 25.7 µM (inactive) in [5]; 32 µM (inactive) in assay [6]. Also, the GI50 in assay [7] was 22.8 µM (inactive); in assay [8], 22 µM (inactive); in [9], 19.6 µM (inactive); in assay [10], 25.9 µM (inactive); in assay [11], 19 µM (inactive); in [12] it was 22 µM (inactive). The GI50 in assay [13] was 13 µM (inactive); in assay [14], 9.77 µM (inactive); in [15] it was 27.9 µM (inactive); in assay [16] it was > 9.1 µM (inactive); in [17], 6.75 µM (inactive); in assay [18], 20.6 µM (inactive). The GI50 in [19] was 12.9 µM (inactive); in assay [20], 25.6 µM (inactive).
Turning to `O=C(N/C=C/C=C/Sc1ccccc1)OCc1ccccc1`, the GI50 in [1] was 16.9 µM (inactive); in assay [2], 52.1 µM (inactive); in [3] it was 17.7 µM (inactive); in [4] it was 24.8 µM (inactive); in [5], 24.5 µM (inactive); in assay [6] it was 23.2 µM (inactive). The GI50 in assay [7] was 17.5 µM (inactive); in assay [8], 17.5 µM (inactive); in [9] it was 18.5 µM (inactive); in assay [10] it was 15.4 µM (inactive); in assay [11], 16.1 µM (inactive); in assay [12] it was 21.7 µM (inactive). The GI50 in [13] was 17.5 µM (inactive); in assay [14], 19.6 µM (inactive); in assay [15], 18.7 µM (inactive); in assay [16], 40.2 µM (inactive); in assay [17], 36.3 µM (inactive); in assay [18], 24.3 µM (inactive). The GI50 was 16 µM (inactive) in assay [19] and 17.5 µM (inactive) in [20].

In general, GI50 refers to the concentration at which growth is held to half of that of the control.

The values above are taken from ChEMBL document CHEMBL1201862, “PubChem BioAssay data set” (2004).
